Active and inactive are the calls of the source. A value given as a limit tells only on which side of the number the result lay.

Here are results for four compounds from ChEMBL document CHEMBL1201862, “PubChem BioAssay data set” (2004).

Assay [1] has as its target T1, Sentrin-specific protease 8 (Homo sapiens, UniProt Q96LD8).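 Also: luminescence read-out of SENP8 inhibition, dose-response confirmation following an ultra-high-throughput screen.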
T1 sequence (Q96LD8 whole entry): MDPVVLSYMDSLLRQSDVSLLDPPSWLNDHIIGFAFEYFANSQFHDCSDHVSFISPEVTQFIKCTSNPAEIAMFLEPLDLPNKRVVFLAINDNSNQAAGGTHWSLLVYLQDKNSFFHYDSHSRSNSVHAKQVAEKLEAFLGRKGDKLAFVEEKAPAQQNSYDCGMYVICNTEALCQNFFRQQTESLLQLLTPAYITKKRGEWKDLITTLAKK
Format: functional.

For a further assay, the system named is HEK293. The assay is described as follows: membrane integrity loss in HEK cells – cell-based, fluorescence, cytotoxicity control for IDE activator project, dose response (AID 588440).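 Also: cytotoxicity by LDH release measuring loss of membrane integrity.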 Format: functional. The following applies: Homo sapiens.
Assay [2] deals with T2, Histone-lysine N-methyltransferase NSD2 (Homo sapiens, UniProt O96028).
T2 sequence (O96028 whole entry): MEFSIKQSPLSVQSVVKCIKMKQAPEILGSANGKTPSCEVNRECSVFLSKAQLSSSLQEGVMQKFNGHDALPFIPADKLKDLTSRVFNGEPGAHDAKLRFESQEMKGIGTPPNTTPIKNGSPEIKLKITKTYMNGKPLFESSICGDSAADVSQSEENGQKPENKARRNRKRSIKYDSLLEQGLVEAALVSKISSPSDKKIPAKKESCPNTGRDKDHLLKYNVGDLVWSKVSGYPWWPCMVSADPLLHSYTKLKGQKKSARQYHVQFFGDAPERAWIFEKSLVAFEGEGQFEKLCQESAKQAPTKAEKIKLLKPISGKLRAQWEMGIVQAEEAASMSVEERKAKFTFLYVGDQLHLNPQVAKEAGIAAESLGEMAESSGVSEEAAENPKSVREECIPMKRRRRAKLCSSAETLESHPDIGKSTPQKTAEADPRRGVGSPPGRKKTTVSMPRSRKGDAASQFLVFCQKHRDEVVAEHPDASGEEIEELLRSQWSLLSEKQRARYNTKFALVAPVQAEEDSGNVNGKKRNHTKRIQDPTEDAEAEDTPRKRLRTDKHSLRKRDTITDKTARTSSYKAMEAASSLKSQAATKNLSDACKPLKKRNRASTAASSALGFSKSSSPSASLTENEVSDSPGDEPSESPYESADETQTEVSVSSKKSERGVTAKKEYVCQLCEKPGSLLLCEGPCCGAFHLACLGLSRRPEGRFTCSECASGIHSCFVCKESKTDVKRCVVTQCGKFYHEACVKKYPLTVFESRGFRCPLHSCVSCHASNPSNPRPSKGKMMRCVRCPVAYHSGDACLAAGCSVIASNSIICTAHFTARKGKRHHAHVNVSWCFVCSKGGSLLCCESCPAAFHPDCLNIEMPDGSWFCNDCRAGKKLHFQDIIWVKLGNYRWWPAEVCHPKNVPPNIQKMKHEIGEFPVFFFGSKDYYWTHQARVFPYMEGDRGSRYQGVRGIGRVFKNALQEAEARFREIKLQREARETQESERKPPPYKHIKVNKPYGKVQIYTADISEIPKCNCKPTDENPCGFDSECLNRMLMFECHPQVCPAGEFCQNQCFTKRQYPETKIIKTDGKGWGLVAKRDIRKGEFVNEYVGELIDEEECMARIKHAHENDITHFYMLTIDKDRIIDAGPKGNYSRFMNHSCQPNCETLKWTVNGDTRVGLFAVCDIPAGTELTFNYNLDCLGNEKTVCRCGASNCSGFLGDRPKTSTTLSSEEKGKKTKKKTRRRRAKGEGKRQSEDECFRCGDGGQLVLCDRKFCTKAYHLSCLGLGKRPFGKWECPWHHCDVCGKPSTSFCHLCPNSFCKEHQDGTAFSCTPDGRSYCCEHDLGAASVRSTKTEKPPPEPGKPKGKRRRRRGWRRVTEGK
Format: biochemical.

Assay [3] concerns the target Maternal embryonic leucine zipper kinase (Homo sapiens, UniProt Q14680). Format: functional.
In assay [4] the target is Homeodomain-interacting protein kinase 4 (Homo sapiens, UniProt Q8NE63). Format: functional.
The target of assay [5] is Phosphorylase b kinase gamma catalytic chain, liver/testis isoform (Homo sapiens, UniProt P15735). Format: functional.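 Also: PHKG2 measured as one member of a kinome-wide kinase panel.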
Assay [6] addresses Serine/threonine-protein kinase Nek2 (Homo sapiens, UniProt P51955). Format: functional.
For assay [7], the target named is Interleukin-1 receptor-associated kinase 1 (Homo sapiens, UniProt P51617). Format: functional.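 Also: IRAK1 tested as one member of a kinome panel.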
The target of assay [8] is Protein kinase C iota type (Homo sapiens, UniProt P41743). Format: functional.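 Also: measured within a kinome-wide kinase panel, PRKCI as panel member.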
Assay [9] addresses Serine/threonine-protein kinase N2 (Homo sapiens, UniProt Q16513). Format: functional.
For assay [10], the target named is Mitogen-activated protein kinase 12 (Homo sapiens, UniProt P53778). Format: functional.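 Also: measured as one member of a kinome-wide kinase profiling panel.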
Assay [11] deals with Receptor tyrosine-protein kinase erbB-2 (Homo sapiens, UniProt P04626). The assay is described as follows: Navigating the Kinome. Panel member name: ERBB2. Format: functional.
Assay [12] deals with Mitogen-activated protein kinase kinase kinase 20 (Homo sapiens, UniProt Q9NYL2). Format: functional.
Assay [13] addresses Protein kinase C delta type (Homo sapiens, UniProt Q05655). Format: functional.
The target of a further assay is T3, Aurora kinase A (Homo sapiens, UniProt O14965).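 Also: value from the Navigating the Kinome kinase panel profiling, panel entry STK6.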
T3 sequence (O14965 whole entry): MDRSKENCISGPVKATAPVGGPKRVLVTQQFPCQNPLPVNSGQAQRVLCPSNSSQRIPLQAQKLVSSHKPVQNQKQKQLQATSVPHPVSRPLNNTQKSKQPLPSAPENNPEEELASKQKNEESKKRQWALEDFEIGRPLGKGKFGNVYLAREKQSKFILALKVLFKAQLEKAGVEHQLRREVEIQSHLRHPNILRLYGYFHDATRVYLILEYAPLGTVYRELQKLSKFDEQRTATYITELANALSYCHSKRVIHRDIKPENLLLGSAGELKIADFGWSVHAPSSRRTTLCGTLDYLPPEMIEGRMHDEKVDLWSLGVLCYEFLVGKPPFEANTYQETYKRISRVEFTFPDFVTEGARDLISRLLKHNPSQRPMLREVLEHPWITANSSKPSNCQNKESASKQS
Format: functional.

Assay [14] concerns the target Leucine-rich repeat serine/threonine-protein kinase 2 (Homo sapiens, UniProt Q5S007). Format: functional.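 Also: value from a broad kinome-wide panel profiling study in which LRRK2 was one of the kinases tested.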
Another assay addresses LIM domain kinase 1 (Homo sapiens, UniProt P53667). Put plainly: Navigating the Kinome. Panel member name: LIMK1. Format: functional.

Mitogen-activated protein kinase 12, sequence (P53778 whole entry): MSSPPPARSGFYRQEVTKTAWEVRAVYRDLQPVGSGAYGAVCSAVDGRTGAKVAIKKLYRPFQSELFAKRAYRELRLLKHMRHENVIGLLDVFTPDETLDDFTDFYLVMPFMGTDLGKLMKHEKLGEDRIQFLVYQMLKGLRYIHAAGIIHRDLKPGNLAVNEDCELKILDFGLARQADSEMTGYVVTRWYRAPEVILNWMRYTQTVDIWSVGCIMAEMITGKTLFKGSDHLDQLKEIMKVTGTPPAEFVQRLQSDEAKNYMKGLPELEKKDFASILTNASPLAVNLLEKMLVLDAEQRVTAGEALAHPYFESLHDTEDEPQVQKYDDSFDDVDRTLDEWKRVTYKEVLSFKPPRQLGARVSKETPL
Phosphorylase b kinase gamma catalytic chain, liver/testis isoform, sequence (P15735 whole entry, canonical isoform): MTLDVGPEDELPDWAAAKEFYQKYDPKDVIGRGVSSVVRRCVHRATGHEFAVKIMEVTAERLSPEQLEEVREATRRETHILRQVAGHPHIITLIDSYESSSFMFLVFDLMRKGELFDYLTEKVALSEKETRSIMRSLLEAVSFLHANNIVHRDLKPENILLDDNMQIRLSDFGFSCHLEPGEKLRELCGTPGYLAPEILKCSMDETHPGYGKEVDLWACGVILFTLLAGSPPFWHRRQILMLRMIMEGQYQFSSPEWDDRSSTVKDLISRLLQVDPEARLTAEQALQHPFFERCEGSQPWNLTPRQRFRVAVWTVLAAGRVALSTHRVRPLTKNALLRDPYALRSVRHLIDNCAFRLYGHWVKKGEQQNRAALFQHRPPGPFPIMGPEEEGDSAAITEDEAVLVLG
Homeodomain-interacting protein kinase 4, sequence (Q8NE63 whole entry, canonical isoform): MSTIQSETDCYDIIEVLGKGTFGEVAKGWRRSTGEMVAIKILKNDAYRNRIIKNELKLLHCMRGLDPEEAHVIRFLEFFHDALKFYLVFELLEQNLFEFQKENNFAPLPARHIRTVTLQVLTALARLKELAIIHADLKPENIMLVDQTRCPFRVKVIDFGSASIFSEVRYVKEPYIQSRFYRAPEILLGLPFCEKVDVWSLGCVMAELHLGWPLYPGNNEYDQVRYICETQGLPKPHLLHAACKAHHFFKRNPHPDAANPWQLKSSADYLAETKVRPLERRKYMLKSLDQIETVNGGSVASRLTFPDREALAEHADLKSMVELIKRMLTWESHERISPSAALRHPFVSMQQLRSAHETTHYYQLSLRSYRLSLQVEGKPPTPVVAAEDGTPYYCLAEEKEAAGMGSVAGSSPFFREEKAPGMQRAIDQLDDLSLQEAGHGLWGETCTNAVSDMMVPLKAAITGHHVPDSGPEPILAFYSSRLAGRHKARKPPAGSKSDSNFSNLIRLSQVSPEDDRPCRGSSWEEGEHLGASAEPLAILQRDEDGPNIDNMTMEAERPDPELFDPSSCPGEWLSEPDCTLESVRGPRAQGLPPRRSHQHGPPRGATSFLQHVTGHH
Protein kinase C iota type, sequence (P41743 whole entry): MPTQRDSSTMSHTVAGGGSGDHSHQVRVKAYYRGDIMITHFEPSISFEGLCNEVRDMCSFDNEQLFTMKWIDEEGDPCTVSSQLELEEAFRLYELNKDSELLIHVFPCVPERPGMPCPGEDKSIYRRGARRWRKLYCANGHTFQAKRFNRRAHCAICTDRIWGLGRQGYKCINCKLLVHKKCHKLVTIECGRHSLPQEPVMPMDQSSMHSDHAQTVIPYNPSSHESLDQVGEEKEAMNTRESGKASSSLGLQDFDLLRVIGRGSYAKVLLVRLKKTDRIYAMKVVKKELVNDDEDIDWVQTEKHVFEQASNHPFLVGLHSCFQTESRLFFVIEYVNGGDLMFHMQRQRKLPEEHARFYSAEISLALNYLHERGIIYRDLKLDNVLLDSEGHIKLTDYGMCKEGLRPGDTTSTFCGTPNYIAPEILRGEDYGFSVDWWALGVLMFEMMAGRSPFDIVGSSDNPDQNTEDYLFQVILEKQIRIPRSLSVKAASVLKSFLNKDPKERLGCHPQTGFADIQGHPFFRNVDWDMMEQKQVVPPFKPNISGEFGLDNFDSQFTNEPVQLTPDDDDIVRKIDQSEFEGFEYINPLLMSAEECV
Maternal embryonic leucine zipper kinase, sequence (Q14680 whole entry): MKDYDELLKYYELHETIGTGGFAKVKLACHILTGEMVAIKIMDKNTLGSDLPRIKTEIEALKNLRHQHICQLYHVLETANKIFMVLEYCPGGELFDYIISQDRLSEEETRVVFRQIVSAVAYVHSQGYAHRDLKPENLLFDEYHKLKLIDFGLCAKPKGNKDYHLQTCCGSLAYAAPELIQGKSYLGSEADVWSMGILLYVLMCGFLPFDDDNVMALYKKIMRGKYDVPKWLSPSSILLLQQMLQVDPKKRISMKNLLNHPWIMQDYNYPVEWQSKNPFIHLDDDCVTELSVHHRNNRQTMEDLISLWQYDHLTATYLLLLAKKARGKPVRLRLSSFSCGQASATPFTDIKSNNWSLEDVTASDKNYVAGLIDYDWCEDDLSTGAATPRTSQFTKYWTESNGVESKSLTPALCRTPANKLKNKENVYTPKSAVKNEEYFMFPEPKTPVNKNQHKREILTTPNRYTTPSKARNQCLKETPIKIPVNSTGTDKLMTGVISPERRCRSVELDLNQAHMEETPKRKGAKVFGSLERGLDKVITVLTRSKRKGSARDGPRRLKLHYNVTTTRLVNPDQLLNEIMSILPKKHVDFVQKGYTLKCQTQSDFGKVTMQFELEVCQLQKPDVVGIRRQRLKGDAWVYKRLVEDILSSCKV
Protein kinase C delta type, sequence (Q05655 whole entry): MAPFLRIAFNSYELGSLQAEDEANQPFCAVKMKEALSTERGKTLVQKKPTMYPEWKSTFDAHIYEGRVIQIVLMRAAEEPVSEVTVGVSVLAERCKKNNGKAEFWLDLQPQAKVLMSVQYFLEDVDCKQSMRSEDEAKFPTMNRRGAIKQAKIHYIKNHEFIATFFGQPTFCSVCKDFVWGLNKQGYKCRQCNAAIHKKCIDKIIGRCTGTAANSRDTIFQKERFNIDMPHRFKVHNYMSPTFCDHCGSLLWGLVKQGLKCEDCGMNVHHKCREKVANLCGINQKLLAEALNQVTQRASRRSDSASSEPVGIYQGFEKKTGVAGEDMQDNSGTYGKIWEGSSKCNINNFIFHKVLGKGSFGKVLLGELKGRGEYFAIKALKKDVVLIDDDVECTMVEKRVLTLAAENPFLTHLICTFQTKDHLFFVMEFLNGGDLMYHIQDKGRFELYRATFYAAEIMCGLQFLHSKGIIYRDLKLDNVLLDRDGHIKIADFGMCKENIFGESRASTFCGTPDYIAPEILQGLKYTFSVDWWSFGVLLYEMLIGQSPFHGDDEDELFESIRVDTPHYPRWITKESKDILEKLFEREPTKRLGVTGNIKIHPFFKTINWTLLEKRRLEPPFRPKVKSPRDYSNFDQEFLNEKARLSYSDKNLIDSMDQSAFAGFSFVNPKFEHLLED
Interleukin-1 receptor-associated kinase 1, sequence (P51617 whole entry): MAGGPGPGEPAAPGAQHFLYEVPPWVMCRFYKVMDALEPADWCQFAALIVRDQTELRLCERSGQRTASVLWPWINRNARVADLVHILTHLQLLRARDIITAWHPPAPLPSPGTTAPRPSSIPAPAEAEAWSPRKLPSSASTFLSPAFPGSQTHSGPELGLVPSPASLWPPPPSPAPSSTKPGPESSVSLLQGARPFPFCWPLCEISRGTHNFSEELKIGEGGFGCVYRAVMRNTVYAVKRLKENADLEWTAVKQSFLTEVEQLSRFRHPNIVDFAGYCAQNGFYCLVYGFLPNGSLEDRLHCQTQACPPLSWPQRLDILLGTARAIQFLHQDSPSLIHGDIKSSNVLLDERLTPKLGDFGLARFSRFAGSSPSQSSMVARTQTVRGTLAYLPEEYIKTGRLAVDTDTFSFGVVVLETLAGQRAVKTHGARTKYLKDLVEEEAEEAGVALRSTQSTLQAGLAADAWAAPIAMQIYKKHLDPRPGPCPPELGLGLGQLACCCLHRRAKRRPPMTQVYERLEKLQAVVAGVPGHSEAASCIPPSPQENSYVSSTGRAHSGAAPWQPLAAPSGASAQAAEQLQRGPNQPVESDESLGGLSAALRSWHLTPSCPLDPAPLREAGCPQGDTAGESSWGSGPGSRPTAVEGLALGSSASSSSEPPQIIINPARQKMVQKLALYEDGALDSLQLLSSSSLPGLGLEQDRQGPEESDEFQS
Serine/threonine-protein kinase N2, sequence (Q16513 whole entry): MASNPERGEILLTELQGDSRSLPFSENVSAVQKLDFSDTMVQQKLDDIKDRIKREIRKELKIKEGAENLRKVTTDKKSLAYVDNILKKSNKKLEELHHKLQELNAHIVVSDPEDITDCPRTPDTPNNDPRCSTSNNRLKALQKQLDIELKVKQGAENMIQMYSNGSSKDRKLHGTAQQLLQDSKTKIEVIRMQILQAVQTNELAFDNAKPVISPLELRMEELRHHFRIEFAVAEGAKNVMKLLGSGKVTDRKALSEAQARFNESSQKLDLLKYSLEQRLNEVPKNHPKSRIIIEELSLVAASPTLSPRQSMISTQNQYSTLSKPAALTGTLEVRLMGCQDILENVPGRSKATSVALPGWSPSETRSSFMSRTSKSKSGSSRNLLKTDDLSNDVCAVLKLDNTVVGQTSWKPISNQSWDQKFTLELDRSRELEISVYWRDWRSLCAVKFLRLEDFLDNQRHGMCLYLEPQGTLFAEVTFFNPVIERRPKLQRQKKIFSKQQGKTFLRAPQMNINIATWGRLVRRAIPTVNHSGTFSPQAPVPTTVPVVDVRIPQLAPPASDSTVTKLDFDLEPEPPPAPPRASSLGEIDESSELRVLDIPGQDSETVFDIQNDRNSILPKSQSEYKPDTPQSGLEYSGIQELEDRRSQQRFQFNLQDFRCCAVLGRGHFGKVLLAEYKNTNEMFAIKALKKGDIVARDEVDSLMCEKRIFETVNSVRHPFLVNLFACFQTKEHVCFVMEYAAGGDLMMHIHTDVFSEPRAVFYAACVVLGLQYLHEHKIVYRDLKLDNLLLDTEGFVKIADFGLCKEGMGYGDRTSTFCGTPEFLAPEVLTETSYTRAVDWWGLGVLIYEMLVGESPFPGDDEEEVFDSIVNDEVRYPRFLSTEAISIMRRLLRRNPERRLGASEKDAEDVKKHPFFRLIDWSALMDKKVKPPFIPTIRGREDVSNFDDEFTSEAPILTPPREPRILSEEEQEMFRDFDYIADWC

Usually IC50 stands for the concentration needed to halve the response being measured. For the compound `O=C(COC(=O)c1ccc([N+](=O)[O-])s1)Nc1ccc(F)cc1`, the concentration for half-maximal inhibition (IC50) in assay [1] was 4050 nM (active).
The term AC50 denotes the concentration giving half of the maximal activity seen. Turning to `CCN(CC)CCCC(C)n1c2nc(=O)[nH]c(=O)c-2nc2cc(Cl)ccc21` (stereo unspecified), in the assay on HEK293, the IC50 was > 89200 nM (inactive). The half-maximal activity concentration (AC50) in [2] was 1180 nM (active).
By Ki is commonly meant a dissociation constant, usually derived from enzyme kinetics or from competition with a known ligand. By pKi is commonly meant −log10 of the Ki, conventionally taken in molar units. Read a high pKi as a small Ki. With `OC1CCC(Nc2nc(Cl)cc(-c3c[nH]c4ncccc34)n2)CC1` (stereo unspecified), the Ki in [3] was 5.01 nM (active); in assay [4], 398 nM (active); in assay [5], 200 nM (active); in [6], 6310 nM (active); in assay [7], 79.4 nM (active); in assay [8], 2510 nM (active). Besides, the inhibition constant (Ki) in assay [9] was 7.94 nM (active); in assay [10] it was 158 nM (active); in assay [11] it was > 1580 nM (inactive); in assay [12], > 7940 nM (inactive); in [13], 63.1 nM (active). The pKi was 8.3 in assay [3]; 6.4 in [4]; 6.7 in assay [5]; 5.2 in assay [6]; 7.1 in assay [7]; 5.6 in assay [8]. For the same compound, the negative logarithm of the Ki (pKi) in assay [9] came to 8.1; in assay [10] it was 6.8; in [13], 7.2.
For `COc1cccc(CNC(=O)c2cnc(-c3ccncc3)nc2)c1`, the Ki was > 1580 nM (inactive) at Aurora kinase A, > 2510 nM (inactive) in [14] and > 3160 nM (inactive) at LIM domain kinase 1.
